The source of these data is publication PMC8012331, “Drug-induced hepatic steatosis in absence of severe mitochondrial dysfunction in HepaRG cells: proof of multiple mechanism-based toxicity” (Cell Biology and Toxicology, 2020).

The test system of data set [1] is apoB secretion. The experiment in a line: apoB level in culture medium (ELISA), HepaRG cells. The class given is cell-based, human. The settings on record: 4 days, culture medium, vs control. (An ELISA detects its analyte on a solid surface through an enzyme-linked reagent.)
The test system of data set [2] is apoC3 secretion. Briefly: apoC3 level in culture medium (HTRF), HepaRG cells. It counts as cell-based, human. The settings on record: 4 days, culture medium, vs control. (TR-FRET usually uses a lanthanide donor and a delayed reading to cut background.)
The test system of data set [3] is ATP citrate lyase (ACLY). Briefly: RT-qPCR ACLY mRNA in HepaRG cells. The conditions noted are these: 4 days, vs control. It counts as cell-based, human. On the procedure: (§1) Total RNA was extracted with the Nucleospin RNA isolation system purchased from Macherey-Nagel (Düren, Germany), which included a DNase treatment step. Quantification of isolated RNAs was assessed using a Nanodrop 1000 (Thermo Fisher Scientific, Waltham, MA). RNAs were reverse-transcribed into cDNAs using the High-Capacity cDNA Reverse Transcription Kit purchased from Applied Biosystems (Woolston, UK). Gene expression was assessed by real-time quantitative PCR analysis (RT-qPCR) using SYBR Green PCR Master Mix (Applied Biosystems) and a 384-well QuantStudio™ 7 Flex Real-Time PCR System (Thermo Fisher Scientific). Sequences of the primers used to measure gene expression are presented in Supplementary Table 3. Expression of GAPDH was chosen as reference and the 2^−ΔΔCt calculation method was used to express the relative expression of each selected gene.
On the technique in general: In qPCR the cycle at which signal appears reflects the starting amount.

The test system of data set [4] is acetyl-CoA carboxylase alpha (ACACA). The experiment in a line: RT-qPCR ACACA mRNA in HepaRG cells. The class given is cell-based, human. The conditions noted are these: 4 days, vs control. On the procedure: as §1
In data set [5] the test system is fatty acid synthase (FASN). Briefly: RT-qPCR FASN mRNA in HepaRG cells. The conditions noted are these: 4 days, vs control. The class given is cell-based, human. On the procedure:
as §1

Data set [6] has as its system stearoyl-CoA desaturase 1 (hSCD1). The experiment in a line: RT-qPCR hSCD1 mRNA in HepaRG cells. The class given is cell-based, human. The settings on record: 4 days, vs control. The procedure:
as §1

Data set [7] deals with fatty acid translocase (FAT, also known as CD36). Briefly: RT-qPCR FAT/CD36 mRNA in HepaRG cells. The settings on record: 4 days, vs control. The class given is cell-based, human. On the procedure:
as §1

Data set [8] deals with HepaRG cells. The experiment in a line: Neutral lipids with Nile red in HepaRG cells. The settings on record: 4 days, selected concentrations (ATP loss < 30%, not above 100 × Cmax), vs control.
Data set [9] has as its system isolated mouse liver mitochondria. Briefly: Oxygen consumption of isolated mouse liver mitochondria. The class given is biochemical. The settings on record: state 3. On the procedure:
For all aforementioned substrates, measurements were performed in parallel without or with 2 μM rotenone in order to calculate (EC20), as previously mentioned. Oxygen consumption was measured in real-time for 60 min at 37 °C in 96-well plates using a spectrofluorometer (Tecan Infinite® 200; λExcitation 380 nm; λEmission 650 nm). The slope of fluorescence increase, corresponding to the rate of oxygen consumption, was used for calculations. EC20 was thus assessed as previously described by compiling the percentage of inhibition obtained from 4 to 12 experiments.

Data set [10] concerns HepaRG cells. The experiment in a line: Cellular ATP level (CellTiter-Glo) in HepaRG cells. The class given is cell-based, human. The settings on record: 4 days, vs controls.

As to `COc1ccc2c(c1)c(CC(=O)O)c(C)n2C(=O)c1ccc(Cl)cc1` [INDO, indomethacin], in data set [1], the “Effect on apoB secretion” value was “reduced the secretion”. The “Effect on apoC3 secretion” value in data set [2] is “reduced the secretion”. The “ACLY mRNA level” value in data set [3] was “augmented mRNA abundance”. In addition, the “ACACA mRNA level” value in data set [4] is “augmented mRNA abundance”. Moreover, the “FASN mRNA level” value in data set [5] is reported as “augmented mRNA abundance”. Also, the “hSCD1 mRNA level” value in [6] was “also increased hSCD1 mRNA level”. Further, the “FAT/CD36 mRNA level” value in [7] was “significantly augmented”.

With `CO[C@H]1/C=C/O[C@@]2(C)Oc3c(C)c(O)c4c(O)c(c(/C=N/N5CCN(C)CC5)c(O)c4c3C2=O)NC(=O)/C(C)=C\C=C\[C@H](C)[C@H](O)[C@@H](C)[C@@H](O)[C@@H](C)[C@H](OC(C)=O)[C@@H]1C` [RIF, rifampicin], the “Accumulation of neutral lipids (steatosis)” value in data set [8] is recorded as “significant accumulation of neutral lipids”. The “Effect on apoB secretion” value in data set [1] is reported as “reduced the secretion”. In [2], the “Effect on apoC3 secretion” value was “reduced the secretion”. In [9], the “EC20 for inhibition of O2 consumption, glutamate/malate” value is 34 ± 12 µM; the “EC20 for inhibition of O2 consumption, octanoyl-L-carnitine” value was determined as 17 ± 2 µM; the “EC20 for inhibition of O2 consumption, palmitoyl-L-carnitine” value worked out at 16 ± 3 µM; the “EC20 for inhibition of O2 consumption, palmitoyl-coenzyme A + L-carnitine” value was determined as 20 ± 4 µM. Besides, in data set [10], the “Loss of cellular ATP relative to the maximum concentration selected for the study” value is 300 µM (loss of cellular ATP above 30% of the controls for higher concentrations, as shown in Supp. fig 1). In data set [7], the “FAT/CD36 mRNA level” value is recorded as “this effect was not observed”.
